Data taken from patent US20230312550A1, “N-(2-(4-CYANOTHIAZOLIDIN-3-YL)-2-OXOETHYL)-QUINOLINE-4-CARBOXAMIDES” (AstraZeneca AB, priority 2020, published 2023).
Values after ≈ are worked out from the molar mass of the structure shown.

Experiments:
[1] = Metabolic stability in human liver microsomes (HLM); settings: human
Procedure: Metabolic stability in HLM was measured as described in J Comput Aided Mol Des 2015, 29, 795.

[2] = Metabolic stability in rat hepatocytes (rHep); settings: n = 1 or geometric mean of n = 2-3
Kinetic solubility = settings: kinetic from dmso stock
Procedure: Kinetic solubility was measured as described in Comput Aided Mol Des 2015, 29, 795.

hFAP (M39-A757) = hFAP (M39-A757) (Homo sapiens (Human), UniProt Q12884); test: hFAP binding assay (surface plasmon resonance); settings: SPR, 20° C.; for hFAP Binding assay k(off) / hFAP Binding assay k(on): single cycle kinetics; for Kd: n = 1 or geometric mean n = 2-4
[3] = biological target: human Fibroblast activation protein alpha (hFAP) (Homo sapiens (Human), UniProt Q12884); test: hFAP inhibition assay (tight binders); format: biochemical; settings: Ala-Pro-AMC 20 μM, n = 1 or geometric mean n = 2-6; further: hFAP 2.4 pM
Procedure: The plates were read on a PHERAstar® reader with excitation 340 nm and emission 460 nm. Data were analyzed in Genedata Screener®. IC50 values were determined by plotting % inhibition versus log compound concentration and using a one site dose response model.

[4] = biological target: Prolyl endopeptidase, Prolyl Oligopeptidase (hPREP) (Homo sapiens (Human), UniProt P48147); test: hPrep inhibition assay; format: biochemical; settings: hPREP 0.6 nM, Z-Gly-Pro-amino-methylcoumarin 50 μM; read-out: PREP IC50
Procedure, shortened: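 Recombinant human PREP at 0.6 nM final with Z-Gly-Pro-AMC substrate at 50 μM final in Tris-HCl pH 7.5, NaCl, Triton X-100, glutathione; 15 min rt preincubation then 20 min rt reaction in dark. AMC fluorescence (ex 340/em 460 nm); IC50 from one-site dose-response fit of % inhibition.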

Caco-2 cell permeability = settings: human
Procedure: Caco-2 cell permeability was measured as described in Mol Pharm 2017, 14, 1601.

[5] = HLM CLint, n = 1 or average of n = 2-3
[6] = Solubility, kinetic solubility, n = 1 or average of n = 2-3

Chain of human Fibroblast activation protein alpha (hFAP) (Q12884 38-760): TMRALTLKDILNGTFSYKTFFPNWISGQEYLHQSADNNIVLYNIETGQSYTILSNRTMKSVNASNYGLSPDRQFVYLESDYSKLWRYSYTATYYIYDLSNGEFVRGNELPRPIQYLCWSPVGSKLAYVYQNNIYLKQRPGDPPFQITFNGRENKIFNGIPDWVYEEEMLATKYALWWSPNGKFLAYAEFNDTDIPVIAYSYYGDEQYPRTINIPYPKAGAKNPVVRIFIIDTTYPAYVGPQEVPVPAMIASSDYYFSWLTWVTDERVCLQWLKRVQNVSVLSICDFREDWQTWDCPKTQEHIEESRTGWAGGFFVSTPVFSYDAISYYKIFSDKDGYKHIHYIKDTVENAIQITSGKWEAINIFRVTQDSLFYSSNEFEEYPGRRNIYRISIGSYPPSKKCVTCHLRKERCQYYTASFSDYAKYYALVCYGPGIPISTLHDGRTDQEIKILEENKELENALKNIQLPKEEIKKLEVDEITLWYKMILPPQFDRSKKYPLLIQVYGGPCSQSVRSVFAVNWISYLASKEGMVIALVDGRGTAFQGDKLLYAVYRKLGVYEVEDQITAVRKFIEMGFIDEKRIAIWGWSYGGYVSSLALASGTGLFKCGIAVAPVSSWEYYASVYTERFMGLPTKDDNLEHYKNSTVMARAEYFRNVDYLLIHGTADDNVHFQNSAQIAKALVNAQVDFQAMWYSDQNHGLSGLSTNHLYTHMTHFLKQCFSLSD
Chain of Prolyl endopeptidase, Prolyl Oligopeptidase (hPREP) (P48147 whole entry): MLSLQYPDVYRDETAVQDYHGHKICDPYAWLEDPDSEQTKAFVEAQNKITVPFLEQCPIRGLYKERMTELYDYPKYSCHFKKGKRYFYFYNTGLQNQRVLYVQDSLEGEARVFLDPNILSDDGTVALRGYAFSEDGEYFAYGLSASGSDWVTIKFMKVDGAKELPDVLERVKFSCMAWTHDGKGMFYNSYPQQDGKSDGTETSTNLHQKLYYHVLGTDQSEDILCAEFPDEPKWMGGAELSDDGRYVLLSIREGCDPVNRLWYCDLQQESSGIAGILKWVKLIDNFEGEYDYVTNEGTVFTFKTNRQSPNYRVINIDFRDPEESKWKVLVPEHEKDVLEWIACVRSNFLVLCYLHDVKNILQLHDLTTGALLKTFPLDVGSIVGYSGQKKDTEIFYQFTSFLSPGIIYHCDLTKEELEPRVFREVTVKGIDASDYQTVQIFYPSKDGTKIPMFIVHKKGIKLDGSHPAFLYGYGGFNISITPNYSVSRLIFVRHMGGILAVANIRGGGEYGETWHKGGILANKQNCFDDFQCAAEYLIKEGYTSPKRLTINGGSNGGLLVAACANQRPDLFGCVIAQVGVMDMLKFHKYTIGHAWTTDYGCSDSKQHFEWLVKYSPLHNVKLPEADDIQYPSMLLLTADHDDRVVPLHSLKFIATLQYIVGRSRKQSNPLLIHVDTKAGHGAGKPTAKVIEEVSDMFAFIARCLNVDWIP
Chain of hFAP (M39-A757) (Q12884 39-757): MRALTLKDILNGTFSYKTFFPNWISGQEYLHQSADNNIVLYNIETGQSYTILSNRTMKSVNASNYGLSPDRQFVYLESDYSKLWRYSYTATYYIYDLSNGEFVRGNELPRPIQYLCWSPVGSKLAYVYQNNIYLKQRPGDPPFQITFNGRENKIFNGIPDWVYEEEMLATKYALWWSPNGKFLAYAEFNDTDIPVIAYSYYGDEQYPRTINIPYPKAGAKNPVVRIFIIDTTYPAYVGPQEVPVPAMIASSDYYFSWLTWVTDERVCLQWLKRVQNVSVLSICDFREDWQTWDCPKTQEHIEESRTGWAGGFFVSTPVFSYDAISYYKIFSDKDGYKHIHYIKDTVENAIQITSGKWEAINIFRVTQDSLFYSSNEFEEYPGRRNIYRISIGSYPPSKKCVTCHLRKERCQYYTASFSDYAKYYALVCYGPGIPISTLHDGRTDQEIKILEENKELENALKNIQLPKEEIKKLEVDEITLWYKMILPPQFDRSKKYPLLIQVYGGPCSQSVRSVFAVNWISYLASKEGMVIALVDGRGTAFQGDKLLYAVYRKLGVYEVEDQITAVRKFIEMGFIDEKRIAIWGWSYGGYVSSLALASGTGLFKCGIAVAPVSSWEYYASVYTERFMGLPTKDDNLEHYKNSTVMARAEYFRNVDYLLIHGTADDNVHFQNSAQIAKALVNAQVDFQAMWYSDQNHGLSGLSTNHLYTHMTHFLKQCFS

Structure (SMILES)	microsomal CLint [1, 5] [µL/min/mg]	rHep CLint [2] [μL/min/1E6]	solubility (Kinetic solubility; [6]) [µM]	hFAP Binding assay k(off) (hFAP (M39-A757)) [s⁻¹]	hFAP Binding assay k(on) (hFAP (M39-A757)) [M⁻¹ s⁻¹]	Kd (hFAP (M39-A757)) [nM]	IC50 [3] [nM]	IC50 [4] [nM]	Papp A→B (Caco-2 cell permeability) [×10⁻⁶ cm/s]	Papp B→A (Caco-2 cell permeability) [×10⁻⁶ cm/s]	efflux ratio (Caco-2 cell permeability)	microsomal CLint [1] [µL/min/mg]	solubility (Kinetic solubility) [µM]	Papp (Caco-2 cell permeability) [×10⁻⁶ cm/s]
N#C[C@@H]1CSCN1C(=O)CNC(=O)c1ccnc2ccc(N3C[C@@H]4C[C@H]3CO4)cc12 [Example 75, 6-((1S,4S)-2-Oxa-5-azabicyclo[2.2.1]heptan-5-yl)-N-(2-((R)-4-cyano-thiazolidin-3-yl)-2-oxoethyl)quinoline-4-carboxamide]	9	6.7	930 (≈ 394 µg/mL)	0.000024	2300000	0.0063	0.05	490	0.77	17	21			
N#C[C@@H]1CSCN1C(=O)CNC(=O)c1ccnc2ccc(N3C[C@H]4C[C@@H]3CO4)cc12 [Example 76, 6-((1R,4R)-2-Oxa-5-azabicyclo[2.2.1]heptan-5-yl)-N-(2-((R)-4-cyano-thiazolidin-3-yl)-2-oxoethyl)quinoline-4-carboxamide]	4.2	3.5	> 1000	0.000052	1000000	0.051	0.08	510	0.64	20	31			
N#C[C@@H]1CSCN1C(=O)CNC(=O)c1ccnc2ccc(N3CC4CCC(C3)O4)cc12 [Example 79, 6-(8-Oxa-3-azabicyclo[3.2.1]octan-3-yl)-N-(2-((R)-4-cyanothiazolidin-3-yl)-2-oxoethyl)quinoline-4-carboxamide]	21	6.2	610 (≈ 267 µg/mL)	0.00012	16000000	0.018	0.043	630	1.1	33	29			
COC[C@@H]1CN(c2ccc3nccc(C(=O)NCC(=O)N4CSC[C@H]4C#N)c3c2)CCO1 [Example 93, N-(2-((R)-4-Cyanothiazolidin-3-yl)-2-oxoethyl)-6-((S)-2-(methoxymethyl)-morpholino)quinoline-4-carboxamide]	< 3	2.6	300 (≈ 137 µg/mL)	0.000080	1800000	0.047	0.091	1900	0.33	17	50			
COC[C@@H]1[C@@H](C)OCCN1c1ccc2nccc(C(=O)NCC(=O)N3CSC[C@H]3C#N)c2c1 [Example 97, N-(2-((R)-4-Cyanothiazolidin-3-yl)-2-oxoethyl)-6-((2R,3R)-3-(methoxymethyl)-2-methylmorpholino)quinoline-4-carboxamide]	32	19	950 (≈ 446 µg/mL)	0.000076	690000	0.11	0.23	890	0.52	23	45			
N#C[C@@H]1CSCN1C(=O)CNC(=O)c1ccnc2ccc(N3CC(N4CCOCC4)C3)cc12 [Example 122, (R)—N-(2-(4-Cyanothiazolidin-3-yl)-2-oxoethyl)-6-(3-morpholinoazetidin-1-yl)quinoline-4-carboxamide]	< 3	<1	> 1000	0.000043	1300000	0.033	0.049	840	0.2	10	50			
CC1(C(F)F)CN(c2ccc3nccc(C(=O)NCC(=O)N4CSC[C@H]4C#N)c3c2)C1 [Example 135, (R)—N-(2-(4-Cyanothiazolidin-3-yl)-2-oxoethyl)-6-(3-(difluoromethyl)-3-methylazetidin-1-yl)quinoline-4-carboxamide]	23	6.8	310 (≈ 138 µg/mL)	0.000023	1700000	0.013	0.11	500	4.4	29	6.5			
CCC1(O)CN(c2ccc3nccc(C(=O)NCC(=O)N4CSC[C@H]4C#N)c3c2)C1 [Example 154, (R)—N-(2-(4-Cyanothiazolidin-3-yl)-2-oxoethyl)-6-(3-ethyl-3-hydroxy-azetidin-1-yl)quinoline-4-carboxamide]	< 3	2.7	850 (≈ 362 µg/mL)	0.000054	910000	0.059	0.092	590	0.32	12	37			
N#C[C@@H]1CSCN1C(=O)CNC(=O)c1ccnc2ccc(N3CC4(CC(F)C4)C3)cc12 [Example 155, (R)—N-(2-(4-Cyanothiazolidin-3-yl)-2-oxoethyl)-6-(6-fluoro-2-azaspiro[3.3]heptan-2-yl)quinoline-4-carboxamide]		3.2		0.000050	3100000	0.016	0.086	380	4.2	27	6.5	19	400 (≈ 176 µg/mL)	
CC1(O)CN(c2ccc3nccc(C(=O)NCC(=O)N4CSC[C@H]4C#N)c3c2)C1 [Example 165, (R)—N-(2-(4-Cyanothiazolidin-3-yl)-2-oxoethyl)-6-(3-hydroxy-3-methyl-azetidin-1-yl)quinoline-4-carboxamide]	< 3	<1	> 1000	0.000063	1200000	0.051	0.32	670						0.51
CCC1(O)CCN(c2ccc3nccc(C(=O)NCC(=O)N4CSC[C@H]4C#N)c3c2)CC1 [Example 189, (R)—N-(2-(4-Cyanothiazolidin-3-yl)-2-oxoethyl)-6-(4-ethyl-4-hydroxy-piperidin-1-yl)quinoline-4-carboxamide]	11	<1	840 (≈ 381 µg/mL)	0.000051	2600000	0.02	0.056	440	0.29	13	46			
